What is called inhibition is the change of the read-out against control, counted positive when it falls. By CC50 is commonly meant the concentration at which the toxic effect on the cells reaches its halfway point. The low end stands for greater toxicity to the cells, the high end for lower toxicity to the cells. The EC50 is the concentration that produces a half-maximal response. As a reminder, the IC50 is the concentration needed to halve the response being measured.

The target in series [1] is T1, CYP2B6 (Homo sapiens, UniProt P20813).
T1 construct: purchased BD Bioscience 459220
Nature of the series: In vitro CYP450 inhibition screen, fluorogenic assay, CYP2B6. The class given is in vitro ADME. The following applies: probe substrate 7-Ethoxy-4-trifluoromethylcoumarin, average of two independent experiments. The protocol:
(§1) CYP1A2 (BD Bioscience Cat #459500), CYP2B6 (BD Bioscience cat #459220), and CYP3A4 (BD Bioscience Cat #459100) inhibition fluorogenic assays were performed according to the manufacturer's protocol. Test articles were prepared as 10 mM stock solutions in DMSO.
(§2) Data represent the average of two independent experiments. A represents inhibition of 5 to 10%. B represents inhibition of >10% to 20%. C represents inhibition of >20% to 30%. D represents inhibition of >30% to 40%. I represents an IC50 of 5 to 9 μM.

In series [2] the target is T2, CYP2D6 (Homo sapiens, UniProt P10635).
T2 construct: purchased BD Bioscience
In words: In vitro CYP450 inhibition screen, luminogenic assay, CYP2D6. Format: in vitro ADME. The following applies: CYP2D6 enzyme (BD Bioscience), probe substrate Luciferin-ME EGE, average of two independent experiments, read-out: IC50 (μM) or % Inhibition at 20 μM, CYP450 2D6. The protocol:
(§3) CYP2C8, 2C9, 2C19 and 2D6 (BD Bioscience) inhibition luminogenic assay was performed as per the protocol provided by Promega (P450-Glo™ Assay Technical Bulletin #TB325, P450-Glo™ Screening Systems Technical Bulletin #TB340). Test articles were prepared as 10 mM stock solutions in DMSO.
as §2

The nature of series [3]: Cytotoxicity evaluation (Cell Titer 96 AQueous One), Table 2. The following applies: human; cellular viability; cell line not given. Format: cell-based. The protocol:
For cytotoxicity evaluation, H1a-luc or Zluc cells were treated with compounds as described above and cellular viability was monitored using the Cell Titer 96 AQueous One Solution Cell Proliferation Assay (Promega). Plates were then read at 490 nm in a Victor^3V 1420 multilabel counter (Perkin Elmer) and CC50 concentrations were determined using Microsoft Excel and XLfit 4.1 software.

Series [4] deals with HCV genotype 1a H77 strain subgenomic luciferase replicon (H1a-luc) in Huh-7 cells. In words: Luciferase replicon assay, genotype 1a (H1a-luc). Format: cell-based. The following applies: Hepatitis C virus, Huh-7, 72 h, read-out: EC50 Against Relpicon 1a. The protocol: (§4) The HCV luciferase replicon assay measures the ability of a test compound to inhibit HCV replication in cell culture after 3 days of treatment in a human hepatoma cell line (Huh-7) bearing a HCV replicon containing a luciferase-neomycin phosphotransferase fusion gene. The inhibition of HCV replication was measured by quantification of luciferase protein expression. Briefly, Huh-7 cells containing either the HCV genotype 1a H77 strain or genotype 1b Con1 strain subgenomic luciferase replicon (H1a-luc or Zluc, respectively) were grown in DMEM containing glucose, L-glutamine and sodium pyruvate, 10% fetal bovine serum (FBS), 100 IU/mL penicillin, 100 μg/mL streptomycin, 2 mM GlutaMAX, non-essential amino acids and 0.25 (H1a-luc) or 0.5 (Zluc) mg/mL G418. GlutaMAX was obtained from Invitrogen. Corp.; all other media reagents were obtained from Mediatech, Inc. For dose-response testing, the cells were seeded in 96-well plates at 1×10^4 (H1a-luc) or 7.5×10^3 (Zluc) cells/well in a volume of 50 μL, and incubated at 37° C./5% CO2. […] The assay plates were shaken for 3 minutes at room temperature and luciferase activity for each well was measured with a 1 sec read time on the Victor^3V multilabel counter using a 700 nm cut-off filter (Perkin Elmer). EC50 values were calculated from dose response curves from the resulting best-fit equations determined by Microsoft Excel and XLfit 4.1 software.
For orientation: A replicon is a self-replicating genome or part of one, used to study replication in cells.

The target of series [5] is T3, CYP2C8 (Homo sapiens, UniProt P10632).
T3 construct: purchased BD Bioscience
Nature of the series: In vitro CYP450 inhibition screen, luminogenic assay, CYP2C8. The following applies: probe substrate Luciferin-ME, average of two independent experiments. Format: in vitro ADME. The protocol: as §3, §2

Series [6] deals with HCV genotype 1b Con1 strain subgenomic luciferase replicon (Zluc) in Huh-7 cells. In words: Luciferase replicon assay, genotype 1b (Zluc). Format: cell-based. The following applies: Hepatitis C virus, genotype 1b Con1 luciferase replicon (Zluc), 72 hours, read-out: EC50 Against Relpicon 1b. The protocol: as §4
In series [7] the target is T4, CYP1A2 (Homo sapiens, UniProt P05177).
T4 construct: purchased BD Bioscience 459500
Nature of the series: In vitro CYP450 inhibition screen, fluorogenic assay, CYP1A2. The class given is in vitro ADME. The following applies: probe substrate 3-Cyano-7-Ethoxycoumarin; average of two independent experiments. The protocol:
as §1, §2

In series [8] the target is T5, CYP2C19 (Homo sapiens, UniProt P33261).
T5 construct: purchased BD Bioscience
In words: In vitro CYP450 inhibition screen, luminogenic assay, CYP2C19. The class given is in vitro ADME. The following applies: probe substrate Luciferin-H EGE, average of two independent experiments, read-out: IC50 (μM) or % Inhibition at 20 μM, CYP450 2C19. The protocol:
as §3, §2

Series [9] concerns the target T6, CYP2C9 (Homo sapiens, UniProt P11712).
T6 construct: purchased BD Bioscience
Nature of the series: In vitro CYP450 inhibition screen, luminogenic assay, CYP2C9. Format: in vitro ADME. The following applies: CYP2C9 enzyme (BD Bioscience), probe substrate Luciferin-H, average of two independent experiments, read-out: IC50 (μM) or % Inhibition at 20 μM, CYP450 2C9. The protocol: as §3, §2

T5 sequence (P33261 whole entry): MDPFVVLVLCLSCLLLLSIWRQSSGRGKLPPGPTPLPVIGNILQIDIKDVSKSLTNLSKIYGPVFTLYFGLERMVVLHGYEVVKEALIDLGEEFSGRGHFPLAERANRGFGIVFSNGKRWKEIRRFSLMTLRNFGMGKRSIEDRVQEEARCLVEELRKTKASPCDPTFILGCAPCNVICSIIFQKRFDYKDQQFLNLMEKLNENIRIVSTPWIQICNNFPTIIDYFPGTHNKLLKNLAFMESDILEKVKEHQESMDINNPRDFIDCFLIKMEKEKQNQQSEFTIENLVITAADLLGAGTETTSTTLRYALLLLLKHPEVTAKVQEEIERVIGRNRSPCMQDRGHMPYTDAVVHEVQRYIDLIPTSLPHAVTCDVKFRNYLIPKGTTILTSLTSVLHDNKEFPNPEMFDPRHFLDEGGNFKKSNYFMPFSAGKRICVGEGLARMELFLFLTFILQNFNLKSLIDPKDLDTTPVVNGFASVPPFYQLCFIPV
T2 sequence (P10635 whole entry): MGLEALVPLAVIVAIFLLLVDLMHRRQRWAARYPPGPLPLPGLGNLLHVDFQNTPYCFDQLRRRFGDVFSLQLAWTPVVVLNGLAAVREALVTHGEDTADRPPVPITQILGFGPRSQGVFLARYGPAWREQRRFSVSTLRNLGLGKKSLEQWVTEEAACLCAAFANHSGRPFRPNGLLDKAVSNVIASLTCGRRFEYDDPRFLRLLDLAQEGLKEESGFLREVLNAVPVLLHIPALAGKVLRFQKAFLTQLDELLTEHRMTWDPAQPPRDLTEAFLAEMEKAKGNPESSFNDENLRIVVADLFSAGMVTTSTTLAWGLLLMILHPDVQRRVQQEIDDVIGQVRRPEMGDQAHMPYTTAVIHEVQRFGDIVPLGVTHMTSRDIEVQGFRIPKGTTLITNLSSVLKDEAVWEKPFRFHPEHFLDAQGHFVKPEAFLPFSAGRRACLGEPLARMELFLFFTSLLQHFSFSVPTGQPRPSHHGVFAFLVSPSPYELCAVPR
T4 sequence (P05177 whole entry): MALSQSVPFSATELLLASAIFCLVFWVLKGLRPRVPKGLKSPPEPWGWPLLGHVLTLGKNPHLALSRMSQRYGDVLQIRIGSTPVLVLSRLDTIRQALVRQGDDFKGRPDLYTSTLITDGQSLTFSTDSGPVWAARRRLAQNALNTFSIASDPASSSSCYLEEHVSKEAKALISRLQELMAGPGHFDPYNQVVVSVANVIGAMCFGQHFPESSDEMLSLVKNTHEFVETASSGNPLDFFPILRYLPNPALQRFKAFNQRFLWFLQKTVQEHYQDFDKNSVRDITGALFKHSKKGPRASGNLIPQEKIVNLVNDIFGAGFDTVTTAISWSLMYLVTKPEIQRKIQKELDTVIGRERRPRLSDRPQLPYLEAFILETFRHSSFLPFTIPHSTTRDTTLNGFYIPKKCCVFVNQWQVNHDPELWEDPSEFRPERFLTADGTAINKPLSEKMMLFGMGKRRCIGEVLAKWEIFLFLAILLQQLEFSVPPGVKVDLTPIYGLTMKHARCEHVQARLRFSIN
T3 sequence (P10632 whole entry): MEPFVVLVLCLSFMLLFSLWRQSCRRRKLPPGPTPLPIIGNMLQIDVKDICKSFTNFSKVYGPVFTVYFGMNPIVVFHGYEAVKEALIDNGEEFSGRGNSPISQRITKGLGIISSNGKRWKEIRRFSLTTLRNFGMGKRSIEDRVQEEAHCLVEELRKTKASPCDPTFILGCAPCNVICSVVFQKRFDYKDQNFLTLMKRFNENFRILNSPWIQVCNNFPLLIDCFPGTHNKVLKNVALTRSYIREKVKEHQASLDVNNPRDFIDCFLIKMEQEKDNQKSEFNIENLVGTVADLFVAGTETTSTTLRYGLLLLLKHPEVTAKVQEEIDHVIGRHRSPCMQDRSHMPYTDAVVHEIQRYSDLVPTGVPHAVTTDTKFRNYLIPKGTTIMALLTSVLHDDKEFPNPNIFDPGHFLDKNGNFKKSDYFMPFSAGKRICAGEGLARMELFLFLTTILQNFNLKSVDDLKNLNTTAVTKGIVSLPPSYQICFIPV
T1 sequence (P20813 whole entry): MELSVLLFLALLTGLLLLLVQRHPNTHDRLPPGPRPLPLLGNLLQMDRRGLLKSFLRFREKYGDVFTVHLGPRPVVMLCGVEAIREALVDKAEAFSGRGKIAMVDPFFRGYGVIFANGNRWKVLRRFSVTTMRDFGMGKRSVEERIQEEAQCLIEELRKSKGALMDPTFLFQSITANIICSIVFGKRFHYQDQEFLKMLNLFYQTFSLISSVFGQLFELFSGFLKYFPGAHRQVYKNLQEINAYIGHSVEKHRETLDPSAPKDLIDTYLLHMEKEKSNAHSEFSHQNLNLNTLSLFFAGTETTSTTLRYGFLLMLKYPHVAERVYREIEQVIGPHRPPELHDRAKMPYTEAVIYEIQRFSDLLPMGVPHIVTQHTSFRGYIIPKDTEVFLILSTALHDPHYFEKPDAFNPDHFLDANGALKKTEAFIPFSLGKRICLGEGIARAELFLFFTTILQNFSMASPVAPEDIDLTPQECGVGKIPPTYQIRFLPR
T6 sequence (P11712 whole entry): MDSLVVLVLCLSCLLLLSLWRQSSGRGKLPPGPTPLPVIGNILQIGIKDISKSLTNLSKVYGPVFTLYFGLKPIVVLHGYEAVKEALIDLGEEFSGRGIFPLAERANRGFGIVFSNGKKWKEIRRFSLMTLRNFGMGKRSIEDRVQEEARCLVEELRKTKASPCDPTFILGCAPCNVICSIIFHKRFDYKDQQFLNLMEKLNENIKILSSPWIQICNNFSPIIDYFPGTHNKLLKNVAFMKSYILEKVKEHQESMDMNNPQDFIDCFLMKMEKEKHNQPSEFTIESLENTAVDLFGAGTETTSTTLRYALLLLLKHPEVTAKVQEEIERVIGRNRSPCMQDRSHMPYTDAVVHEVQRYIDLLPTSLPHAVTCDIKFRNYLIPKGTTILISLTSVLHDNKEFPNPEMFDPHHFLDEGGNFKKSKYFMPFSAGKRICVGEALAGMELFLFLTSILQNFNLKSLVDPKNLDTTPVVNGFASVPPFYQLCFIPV

Take `C#Cc1csc(-c2cc(O[C@H]3CC[C@H]4C(=O)N(C)CCCC/C=C\[C@@H]5C[C@@]5(C(=O)NS(=O)(=O)C5(C)CC5)NC(=O)[C@@H]4C3)c3ccc(OC)c(C)c3n2)n1` [Compound 52, (1aR,3aR,5S,7aR,15aS,Z)-5-(2-(4-ethynylthiazol-2-yl)-7-methoxy-8-methylquinolin-4-yloxy)-9-methyl-N-(1-methylcyclopropylsulfonyl)-3,8-dioxo-1a,2,3,3a,4,5,6,7,7a,8,9,10,11,12,13,15a-hexadecahydro-1H-benzo[c]cyclopropa[g][1,6]diazacyclotetradecine-1a-carboxamide]: the inhibition at 20 µM lay in the range of 30 to 40% in [1] (human, CYP2B6 enzyme (BD Bioscience cat #459220), probe 7-Ethoxy-4-trifluoromethylcoumarin, read-out: IC50 (μM) or % Inhibition at 20 μM, CYP450 2B6); 5 to 10% in series [2]; 20 to 30% in series [9]. In addition, the half-maximal cytotoxic concentration (CC50) at 72 h in series [3] was above 75 µM. The concentration giving a half-maximal response (EC50) in series [4] and in series [6] was below 1 µM in each case. In series [5], the “IC50 (μM) or % Inhibition at 20 μM, CYP450 2C8” value is on record as “No Inhibition”. In [7], the “IC50 (μM) or % Inhibition at 20 μM, CYP450 1A2” value is “No Inhibition”. Further, the IC50 in series [8] was in the range of 9 to 15 µM.
Regarding `COc1ccc2c(O[C@H]3CC[C@H]4C(=O)N(C)CCCC/C=C\[C@@H]5C[C@@]5(C(=O)NS(=O)(=O)C5(C)CC5)NC(=O)[C@@H]4C3)cc(-c3nc(C(F)(F)F)cs3)nc2c1C` [Compound 51], the “IC50 (μM) or % Inhibition at 20 μM, CYP450 2B6” value in [1] is listed as “No Inhibition”. Further, the inhibition at 20 µM in series [2] fell in the range of 20 to 30%; in series [5] (human, CYP2C8 enzyme (BD Bioscience), read-out: IC50 (μM) or % Inhibition at 20 μM, CYP450 2C8), 10 to 20%; in series [9] it was 20 to 30%. In [3], this compound returned a 50% cytotoxic concentration (CC50) at 72 h of 10 to 75 µM. For the same compound, the half-maximal effective concentration (EC50) in series [4] and in series [6] was below 1 µM in each case. The “IC50 (μM) or % Inhibition at 20 μM, CYP450 1A2” value in series [7] is on record as “No Inhibition”. Moreover, in [8], the half-inhibitory concentration (IC50) lay within 9 to 15 µM.

These data come from patent US9284307B2, “Macrocyclic serine protease inhibitors” (Idenix Pharmaceuticals LLC, priority 2009, dated 2016).
